Laboratory results published in ChEMBL document CHEMBL4477225, “Development of a cell viability assay to assess drug metabolite structure-toxicity relationships” (Bioorg Med Chem Lett, 2016).

Tests used:
Type in all cases: ADME, cell-based
Details in all cases: recombinant enzyme
Cytochrome P450 2C9 [1] = target: T1, Cytochrome P450 2C9 (Homo sapiens, UniProt P11712); assay: Drug activation in human Hep3B cells assessed as human CYP2C9-mediated drug metabolism-induced cytotoxicity measured as decrease in cell viability at 136.1 uM pre-incubated with BSO for 18 hrs followed by incubation with compound for 3 hrs in presence of NADPH measured after 24 hrs in absence of compound, CYP3A4 and NADPH by cell titer-glo luminescence assay relative to BSO alone
T1 sequence (P11712 whole entry): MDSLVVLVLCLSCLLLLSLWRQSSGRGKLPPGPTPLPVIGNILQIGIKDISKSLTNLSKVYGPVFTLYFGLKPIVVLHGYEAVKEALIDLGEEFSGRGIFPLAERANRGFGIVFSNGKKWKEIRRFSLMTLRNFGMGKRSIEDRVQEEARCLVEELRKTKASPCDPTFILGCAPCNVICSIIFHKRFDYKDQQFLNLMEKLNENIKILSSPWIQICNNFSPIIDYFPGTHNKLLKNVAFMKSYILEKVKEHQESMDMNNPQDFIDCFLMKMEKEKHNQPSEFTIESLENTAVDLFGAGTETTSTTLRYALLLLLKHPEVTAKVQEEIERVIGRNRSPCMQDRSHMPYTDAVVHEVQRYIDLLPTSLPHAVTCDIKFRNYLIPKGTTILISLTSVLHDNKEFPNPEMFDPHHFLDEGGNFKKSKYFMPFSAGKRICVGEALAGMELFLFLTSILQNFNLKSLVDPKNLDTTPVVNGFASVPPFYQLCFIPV

Cytochrome P450 3A4 [2] = target: T2, Cytochrome P450 3A4 (Homo sapiens, UniProt P08684); assay: Drug activation in human Hep3B cells assessed as human CYP3A4-mediated drug metabolism-induced cytotoxicity measured as decrease in cell viability at 20.4 uM pre-incubated with BSO for 18 hrs followed by incubation with compound for 3 hrs in presence of NADPH measured after 24 hrs in absence of compound, CYP3A4 and NADPH by cell titer-glo luminescence assay relative to BSO alone
T2 sequence (P08684 whole entry): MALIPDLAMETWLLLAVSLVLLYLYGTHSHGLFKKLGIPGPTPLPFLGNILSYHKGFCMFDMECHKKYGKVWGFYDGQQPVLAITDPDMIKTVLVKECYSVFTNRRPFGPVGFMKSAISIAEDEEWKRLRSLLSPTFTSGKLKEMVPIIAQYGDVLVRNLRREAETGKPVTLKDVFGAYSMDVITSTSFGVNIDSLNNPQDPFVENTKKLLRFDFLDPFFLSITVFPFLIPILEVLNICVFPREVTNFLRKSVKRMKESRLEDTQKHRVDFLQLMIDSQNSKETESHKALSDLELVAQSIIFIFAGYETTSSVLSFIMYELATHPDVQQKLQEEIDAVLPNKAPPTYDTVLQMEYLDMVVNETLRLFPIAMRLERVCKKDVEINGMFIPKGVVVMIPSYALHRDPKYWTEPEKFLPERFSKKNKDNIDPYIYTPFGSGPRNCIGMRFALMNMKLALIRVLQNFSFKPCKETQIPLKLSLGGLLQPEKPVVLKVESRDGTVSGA

Cytochrome P450 2D6 [3] = target: T3, Cytochrome P450 2D6 (Homo sapiens, UniProt P10635); assay: Drug activation in human Hep3B cells assessed as human CYP2D6-mediated drug metabolism-induced cytotoxicity measured as decrease in cell viability at 27.8 uM pre-incubated with BSO for 18 hrs followed by incubation with compound for 3 hrs in presence of NADPH measured after 24 hrs in absence of compound, CYP3A4 and NADPH by cell titer-glo luminescence assay relative to BSO alone
T3 sequence (P10635 whole entry): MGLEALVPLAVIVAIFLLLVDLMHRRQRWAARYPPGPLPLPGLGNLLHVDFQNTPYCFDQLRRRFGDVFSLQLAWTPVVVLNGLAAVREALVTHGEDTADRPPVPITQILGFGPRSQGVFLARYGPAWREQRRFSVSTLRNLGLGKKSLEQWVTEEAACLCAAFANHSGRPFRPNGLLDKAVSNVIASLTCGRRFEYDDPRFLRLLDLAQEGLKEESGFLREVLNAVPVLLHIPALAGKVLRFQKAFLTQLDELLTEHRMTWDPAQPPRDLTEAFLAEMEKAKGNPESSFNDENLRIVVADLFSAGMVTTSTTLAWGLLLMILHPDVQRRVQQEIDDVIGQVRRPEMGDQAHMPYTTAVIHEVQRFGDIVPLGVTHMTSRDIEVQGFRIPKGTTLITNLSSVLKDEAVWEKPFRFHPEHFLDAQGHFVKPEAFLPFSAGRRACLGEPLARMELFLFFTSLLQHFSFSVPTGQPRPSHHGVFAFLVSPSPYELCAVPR

Cytochrome P450 2C9 [4] = target: T1, Cytochrome P450 2C9; assay: Drug activation in human Hep3B cells assessed as human CYP2C9-mediated drug metabolism-induced cytotoxicity measured as decrease in cell viability at 9.7 uM pre-incubated with BSO for 18 hrs followed by incubation with compound for 3 hrs in presence of NADPH measured after 24 hrs in absence of compound, CYP3A4 and NADPH by cell titer-glo luminescence assay relative to BSO alone
Cytochrome P450 2D6 [5] = target: T3, Cytochrome P450 2D6; assay: Drug activation in human Hep3B cells assessed as human CYP2D6-mediated drug metabolism-induced cytotoxicity measured as decrease in cell viability at 12.2 uM pre-incubated with BSO for 18 hrs followed by incubation with compound for 3 hrs in presence of NADPH measured after 24 hrs in absence of compound, CYP3A4 and NADPH by cell titer-glo luminescence assay relative to BSO alone
Cytochrome P450 3A4 [6] = target: T2, Cytochrome P450 3A4; assay: Drug activation in human Hep3B cells assessed as human CYP3A4-mediated drug metabolism-induced cytotoxicity measured as decrease in cell viability at 7.6 uM pre-incubated with BSO for 18 hrs followed by incubation with compound for 3 hrs in presence of NADPH measured after 24 hrs in absence of compound, CYP3A4 and NADPH by cell titer-glo luminescence assay relative to BSO alone
Cytochrome P450 2D6 [7] = target: T3, Cytochrome P450 2D6; assay: Drug activation in human Hep3B cells assessed as human CYP2D6-mediated drug metabolism-induced cytotoxicity measured as decrease in cell viability at 15.2 uM pre-incubated with BSO for 18 hrs followed by incubation with compound for 3 hrs in presence of NADPH measured after 24 hrs in absence of compound, CYP3A4 and NADPH by cell titer-glo luminescence assay relative to BSO alone
Cytochrome P450 2C9 [8] = target: T1, Cytochrome P450 2C9; assay: Drug activation in human Hep3B cells assessed as human CYP2C9-mediated drug metabolism-induced cytotoxicity measured as decrease in cell viability at 40.5 uM pre-incubated with BSO for 18 hrs followed by incubation with compound for 3 hrs in presence of NADPH measured after 24 hrs in absence of compound, CYP3A4 and NADPH by cell titer-glo luminescence assay relative to BSO alone
Cytochrome P450 3A4 [9] = target: T2, Cytochrome P450 3A4; assay: Drug activation in human Hep3B cells assessed as human CYP3A4-mediated drug metabolism-induced cytotoxicity measured as decrease in cell viability at 8.5 uM pre-incubated with BSO for 18 hrs followed by incubation with compound for 3 hrs in presence of NADPH measured after 24 hrs in absence of compound, CYP3A4 and NADPH by cell titer-glo luminescence assay relative to BSO alone
Cytochrome P450 3A4 [10] = target: T2, Cytochrome P450 3A4; assay: Drug activation in human Hep3B cells assessed as human CYP3A4-mediated drug metabolism-induced cytotoxicity measured as decrease in cell viability at 25.2 uM pre-incubated with BSO for 18 hrs followed by incubation with compound for 3 hrs in presence of NADPH measured after 24 hrs in absence of compound, CYP3A4 and NADPH by cell titer-glo luminescence assay relative to BSO alone
Cytochrome P450 2D6 [11] = target: T3, Cytochrome P450 2D6; assay: Drug activation in human Hep3B cells assessed as human CYP2D6-mediated drug metabolism-induced cytotoxicity measured as decrease in cell viability at 33.9 uM pre-incubated with BSO for 18 hrs followed by incubation with compound for 3 hrs in presence of NADPH measured after 24 hrs in absence of compound, CYP3A4 and NADPH by cell titer-glo luminescence assay relative to BSO alone
Cytochrome P450 2C9 [12] = target: T1, Cytochrome P450 2C9; assay: Drug activation in human Hep3B cells assessed as human CYP2C9-mediated drug metabolism-induced cytotoxicity measured as decrease in cell viability at 34.1 uM pre-incubated with BSO for 18 hrs followed by incubation with compound for 3 hrs in presence of NADPH measured after 24 hrs in absence of compound, CYP3A4 and NADPH by cell titer-glo luminescence assay relative to BSO alone
Cytochrome P450 3A4 [13] = target: T2, Cytochrome P450 3A4; assay: Drug activation in human Hep3B cells assessed as human CYP3A4-mediated drug metabolism-induced cytotoxicity measured as decrease in cell viability at 80.2 uM pre-incubated with BSO for 18 hrs followed by incubation with compound for 3 hrs in presence of NADPH measured after 24 hrs in absence of compound, CYP3A4 and NADPH by cell titer-glo luminescence assay relative to BSO alone
Cytochrome P450 2D6 [14] = target: T3, Cytochrome P450 2D6; assay: Drug activation in human Hep3B cells assessed as human CYP2D6-mediated drug metabolism-induced cytotoxicity measured as decrease in cell viability at 129.2 uM pre-incubated with BSO for 18 hrs followed by incubation with compound for 3 hrs in presence of NADPH measured after 24 hrs in absence of compound, CYP3A4 and NADPH by cell titer-glo luminescence assay relative to BSO alone
Cytochrome P450 2C9 [15] = target: T1, Cytochrome P450 2C9; assay: Drug activation in human Hep3B cells assessed as human CYP2C9-mediated drug metabolism-induced cytotoxicity measured as decrease in cell viability at 210.8 uM pre-incubated with BSO for 18 hrs followed by incubation with compound for 3 hrs in presence of NADPH measured after 24 hrs in absence of compound, CYP3A4 and NADPH by cell titer-glo luminescence assay relative to BSO alone

CCc1nn(CCCN2CCN(c3cccc(Cl)c3)CC2)c(=O)n1CCOc1ccccc1 [NEFAZODONE]
fold change (FC) (Cytochrome P450 2C9 [1]): 0.6
fold change (FC) (Cytochrome P450 3A4 [2]): 4.1
fold change (FC) (Cytochrome P450 2D6 [3]): 3

C1CCC(C(CC2CCCCN2)C2CCCCC2)CC1 (stereo not given) [PERHEXILINE]
fold change (FC) (Cytochrome P450 2C9 [4]): 0.5
fold change (FC) (Cytochrome P450 2D6 [5]): 0.4
fold change (FC) (Cytochrome P450 3A4 [6]): 0.7

Cc1c(C)c2c(c(C)c1O)CCC(C)(COc1ccc(CC3SC(=O)NC3=O)cc1)O2 (stereo not given) [TROGLITAZONE]
fold change (FC) (Cytochrome P450 2D6 [7]): 3.1
fold change (FC) (Cytochrome P450 2C9 [8]): 1.2
fold change (FC) (Cytochrome P450 3A4 [9]): 5.5

COc1cc(C(=O)NS(=O)(=O)c2ccccc2C)ccc1Cc1cn(C)c2ccc(NC(=O)OC3CCCC3)cc12 [ZAFIRLUKAST]
fold change (FC) (Cytochrome P450 3A4 [10]): 1.9
fold change (FC) (Cytochrome P450 2D6 [11]): 1.4
fold change (FC) (Cytochrome P450 2C9 [12]): 1.4

CN(C)C/C=C(/c1ccc(Br)cc1)c1cccnc1 [ZIMELDINE]
fold change (FC) (Cytochrome P450 3A4 [13]): 2.8
fold change (FC) (Cytochrome P450 2D6 [14]): 1.8
fold change (FC) (Cytochrome P450 2C9 [15]): 1.1
